These results are taken from patent US20260060947A1 (INSTITUT PASTEUR DE MONTEVIDEO, priority 2019, published 2026).

The subject of assay [1] is NF-κB-p65. The assay can be described thus: LPS-induced NF-κB-p65 nuclear translocation in SOD1^G93A primary microglia. The settings on record: BANA 10-30 μM before LPS. The assay is classed as cell-based, rat. The protocol:
FIG. 8D: Confocal images show CD11b-positive SOD1^G93A primary microglia (grey) treated with BANA, BA or vehicle, before LPS stimulation. […] Nuclear NF-κB-p65 colocalizing with DAPI nuclear staining is denoted in yellow.
Nuclear NF-κB-p65 colocalizing with DAPI nuclear staining is denoted in yellow. […] Scale bar=20 μm. […] 2 replicates of 3 independent experiments.
The effects of BANA on LPS- or TNFα-induced NF-κB activation were also assayed in cell cultures of BV2 microglial cell line and primary adult microglia isolated from symptomatic SOD1^G93A rats, and HT-29 NF-κB reporter cell line, respectively.

A further assay relates to NLRP3 inflammasome. Nature of the assay: Inflammasome activation in THP-1 cells (LPS and ATP), IL-1β ELISA. The assay is classed as cell-based, Human. The settings on record: 30 μM, in first or second signal (LPS and ATP), compared with vehicle. The protocol: The effect of BANA or BA over NF-κB-dependent gene expression was studied by qPCR using THP-1 cells. THP-1 cells were differentiated into macrophages and treated with BANA (30 μM) or BA (30 μM) for 2 hs, followed by stimulation with LPS (100 ng/mL, for 3-4 h).
For inflammasome activation, THP-1 cells were treated with LPS (as above) followed by exposure to ATP (5 mM, 45 min). IL-1β in the supernatant was then measured by ELISA (B&D OptEIA TM, San Diego, CA, USA).

Assay [2] has as its system NF-κB-p65. Nature of the assay: LPS-induced NF-κB-p65 nuclear translocation in BV2 cells (immunocytochemistry). The assay is classed as cell-based, murine. The settings on record: BANA 10, 20, 30 μM, BA 30 μM or DMF for 3 hrs before LPS 100 ng/ml. The protocol:
The effect of BANA on nuclear translocation of NF-κB was studied by immunocytochemistry using murine microglia cell line BV2.
Cells were then treated with BANA (10, 20 and 30 μM) or B.A (30 μM) for 3 hrs. After treatment, cells were stimulated with LPS (100 ng/ml) for 30 minutes. Then, cells were washed and fixed with PFA 4% for 20 minutes at 4° C. and washed with PBS. Immunocytochemistry was performed as follows: cells were permeabilized using 0.5% Triton in PBS for 15 minutes, and then blocked using 5% of BSA for 1 h at room temperature. Rabbit anti-NF-κB-p65 (ab16502, 1/200) and mouse anti-CD11b (BD550219, 1/100) were incubated overnight at 4° C. After that, primary antibodies were removed, washed with PBS 3 times for 10 minutes, and Alexa-fluor-conjugated goat anti-rabbit or goat anti-mouse antibodies (1:1000) were incubated for 2 h at room temperature. After secondary antibodies were removed, cells were covered in glycerol mounting medium with 1/2000 DAPI staining. Cells were analyzed by confocal microscopy using a confocal ZEISS LSM 800. NF-κB-p65+ nuclei were counted and ratio of DAPI to NF-κB-p65 labeling was compared among groups. Data were analyzed using analyzing tools of ImageJ and GraphPad Prism 7 software.

As to `O=C(O)c1ccccc1` [benzoic acid, reference compound], the “LPS-induced NF-κB-p65 nuclear translocation” value in the assay on NF-κB-p65 [1] and with NF-κB-p65 [2] was “devoid of inhibitory effect” each time. Besides, the “release of IL-1β” value in the assay on NLRP3 inflammasome is listed as “devoid of anti-inflammatory effects”.
